Values quoted from earlier work in patent US20040110774A1, “Methods and formulations of using A1 adenosine receptor antagonists and P2x purinoceptor antagonists for the treatment and prevention of immune system disorders” (priority 2001, published 2004).
One block for each compound: values may come before it.

What was measured:
[1] = molecular target: T1, A1 adenosine receptor (Homo sapiens, UniProt P30542); details: in tissues
T1 sequence (P30542 1-326): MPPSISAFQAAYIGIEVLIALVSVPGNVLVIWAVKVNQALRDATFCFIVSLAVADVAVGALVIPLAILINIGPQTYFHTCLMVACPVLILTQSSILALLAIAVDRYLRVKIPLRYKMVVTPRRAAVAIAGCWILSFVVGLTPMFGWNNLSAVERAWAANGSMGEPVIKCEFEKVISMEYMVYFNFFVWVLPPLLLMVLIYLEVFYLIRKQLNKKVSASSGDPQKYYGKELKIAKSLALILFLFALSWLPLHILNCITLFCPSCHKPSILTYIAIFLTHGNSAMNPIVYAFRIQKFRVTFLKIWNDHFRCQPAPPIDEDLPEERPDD

[2] = test system: iNOS
[3] = test system: RAW 264.7 macrophages; details: LPS-stimulated RAW 264.7 macrophages

nonspecific binding [1]: less than 1%
SMILES: CCCn1c(=O)c2[nH]c(C3CCCC3)nc2n(CCC)c1=O [DPCPX, 1,3-dipropyl-8-cyclopentylxanthine]

SMILES: Cc1nc(N=Nc2ccc(S(=O)(=O)O)cc2S(=O)(=O)O)c(COP(=O)(O)O)c(C=O)c1O [PPADS, pyridoxal-phosphate-6-azophenyl-2′,4′-disulphonic acid]
effect of LPS on the expression of iNOS [2]: prevent the effect of LPS on the expression of iNOS

SMILES: Nc1ncnc2c1ncn2[C@@H](C=O)O[C@@H](C=O)COP(=O)(O)OP(=O)(O)OP(=O)(O)O [o-ATP, Periodate oxidized adenosine 5′-triphosphate]
NF-kappa-B-like binding activity [3]: inhibit NF-kappa-B-like binding activity
effects of LPS on nitric oxide (NO) production [3]: inhibit the effects of LPS on nitric oxide (NO) production
expression of inducible nitric oxide synthase (iNOS) [3]: inhibit the expression of inducible nitric oxide synthase (iNOS)
